From PMC8286840, “Identifying SARS-CoV-2 antiviral compounds by screening for small molecule inhibitors of Nsp3 papain-like protease” (Biochemical Journal, 2021)
Read-outs that look alike come from different tables or passages of the source.

Experiments:
[1] = molecular target: T1, SARS-CoV-2 PLpro (nsp3 1564–1878) (Severe acute respiratory syndrome coronavirus 2, UniProt P0DTD1); experiment: biochemical; set-up: FRET-quenched peptide (Pro3) cleavage by PLpro, 10 min pre-incubation, slope over 20 min, normalised to no-compound control; conditions: low concentration screen, read-out: % of control remaining
[2] = molecular target: T1, SARS-CoV-2 PLpro (nsp3 1564–1878); experiment: biochemical; set-up: FRET-quenched peptide (Pro3) cleavage by PLpro, 10 min pre-incubation, slope over 20 min, normalised to no-compound control; conditions: high concentration screen, read-out: % of control remaining

CCOC(=O)[C@]12CC1/C(=N\O)c1ccccc1O2 (mixture of isomers) [CPCCOEt]
remaining activity at 1.25 µM ([1]; Well no.=286): 95.2% | remaining activity at 3.75 µM ([2]; Well no.=286): 99.4%

S=C(S)OC1CC2CC1C1CCCC21 (mixture of isomers) [D-609 potassium]
remaining activity at 1.25 µM ([1]; Well no.=1374): 99.3% | remaining activity at 3.75 µM ([2]; Well no.=1374): 99%

CCC(C)n1ncn(-c2ccc(N3CCN(c4ccc(OC[C@H]5CO[C@](Cn6cncn6)(c6ccc(Cl)cc6Cl)O5)cc4)CC3)cc2)c1=O (mixture of isomers) [Itraconazole]
remaining activity at 1.25 µM ([1]; Well no.=2228): 96.3% | remaining activity at 3.75 µM ([2]; Well no.=2228): 94.2%

OC[C@H]1O[C@@H](O[C@@H]2[C@@H](CO)OC(O)(CO)[C@H]2O)[C@H](O)[C@@H](O)[C@H]1O (mixture of isomers) [Lactulose]
remaining activity at 1.25 µM ([1]; Well no.=8140): 95.7% | remaining activity at 3.75 µM ([2]; Well no.=8140): 97.6%

CCCCC(C)(O)C/C=C/[C@H]1[C@H](O)CC(=O)[C@@H]1CCCCCCC(=O)OC (mixture of isomers) [Misoprostol]
remaining activity at 1.25 µM ([1]; Well no.=2194): 99.5% | remaining activity at 1.25 µM ([1]; Well no.=7473): 104% | remaining activity at 3.75 µM ([2]; Well no.=2194): 98% | remaining activity at 3.75 µM ([2]; Well no.=7473): 103%

CCCN(CCC)C1CCc2ccc(O)cc2C1 (racemic)
remaining activity at 1.25 µM ([1]; Well no.=662): 94.1% | remaining activity at 3.75 µM ([2]; Well no.=662): 94.8%

CC(N)c1cccc(Cl)c1Cl (racemic)
remaining activity at 1.25 µM ([1]; Well no.=734): 92.1% | remaining activity at 3.75 µM ([2]; Well no.=734): 94.8%

C[C@@H]1O[C@H](C[N+](C)(C)C)C[C@H]1O (racemic)
remaining activity at 1.25 µM ([1]; Well no.=1037): 97.2% | remaining activity at 3.75 µM ([2]; Well no.=1037): 98.2%

CCN1CCCC1CNC(=O)c1cc(S(N)(=O)=O)ccc1OC (racemic)
remaining activity at 1.25 µM ([1]; Well no.=1174): 105% | remaining activity at 3.75 µM ([2]; Well no.=1174): 106%

NC(CCCCCP(=O)(O)O)C(=O)O (racemic)
remaining activity at 1.25 µM ([1]; Well no.=17): 100% | remaining activity at 3.75 µM ([2]; Well no.=17): 97.5%

NC1CCN(O)C1=O (racemic)
remaining activity at 1.25 µM ([1]; Well no.=250): 101% | remaining activity at 3.75 µM ([2]; Well no.=250): 103%

C=CCN1CCc2c(cc(O)c(O)c2Cl)C(c2ccccc2)C1 (racemic)
remaining activity at 1.25 µM ([1]; Well no.=725): 96.8% | remaining activity at 3.75 µM ([2]; Well no.=725): 96.5%

O=C1CCC(N2C(=O)c3ccccc3C2=O)C(=O)N1 (racemic)
remaining activity at 1.25 µM ([1]; Well no.=1282): 107% | remaining activity at 3.75 µM ([2]; Well no.=1282): 105%

CC1CCN=C(N)S1 (racemic)
remaining activity at 1.25 µM ([1]; Well no.=12): 105% | remaining activity at 3.75 µM ([2]; Well no.=12): 106%

CN(C)CCC(c1ccc(Br)cc1)c1ccccn1 (racemic)
remaining activity at 1.25 µM ([1]; Well no.=219): 97.7% | remaining activity at 3.75 µM ([2]; Well no.=219): 97.9%

Cc1o[nH]c(=O)c1CC(N)C(=O)O (racemic)
remaining activity at 1.25 µM ([1]; Well no.=508): 99.4% | remaining activity at 3.75 µM ([2]; Well no.=508): 100%

NC(CCP(=O)(O)O)C(=O)O (racemic)
remaining activity at 1.25 µM ([1]; Well no.=297): 102% | remaining activity at 3.75 µM ([2]; Well no.=297): 101%

COc1cc(C(O)C(=O)O)ccc1O (racemic)
remaining activity at 1.25 µM ([1]; Well no.=606): 96% | remaining activity at 3.75 µM ([2]; Well no.=606): 97.2%

CCC1(c2ccc(N)cc2)CCC(=O)NC1=O (racemic)
remaining activity at 1.25 µM ([1]; Well no.=202): 100% | remaining activity at 3.75 µM ([2]; Well no.=202): 102%

CC(C)NCC(O)c1ccc(NS(C)(=O)=O)cc1 (racemic)
remaining activity at 1.25 µM ([1]; Well no.=1212): 105% | remaining activity at 3.75 µM ([2]; Well no.=1212): 103%

COc1cc(C(O)CN)ccc1O (racemic)
remaining activity at 1.25 µM ([1]; Well no.=1049): 96.5% | remaining activity at 3.75 µM ([2]; Well no.=1049): 96.1%

CN1CCN(C2Cc3ccccc3Sc3ccc(Cl)cc32)CC1 (racemic)
remaining activity at 1.25 µM ([1]; Well no.=804): 104% | remaining activity at 3.75 µM ([2]; Well no.=804): 105%

CC(C)(C)NCC(O)COc1cccc2[nH]c(=O)[nH]c12 (racemic)
remaining activity at 1.25 µM ([1]; Well no.=629): 101% | remaining activity at 3.75 µM ([2]; Well no.=629): 101%

CC(C)Cc1ccc(C(C)C(=O)O)cc1 (racemic)
remaining activity at 1.25 µM ([1]; Well no.=1011): 100% | remaining activity at 3.75 µM ([2]; Well no.=1011): 99.6%

N[C@H](C(=O)O)c1cccc(O)c1 (racemic)
remaining activity at 1.25 µM ([1]; Well no.=476): 101% | remaining activity at 3.75 µM ([2]; Well no.=476): 97%

NCC(O)c1ccc(O)cc1 (racemic)
remaining activity at 1.25 µM ([1]; Well no.=1038): 97.4% | remaining activity at 3.75 µM ([2]; Well no.=1038): 95.7%

C[C@H](Nc1ccc(Cl)cc1)C(=O)O (racemic)
remaining activity at 1.25 µM ([1]; Well no.=230): 95.2% | remaining activity at 3.75 µM ([2]; Well no.=230): 97.1%

CNC[C@H](O)c1ccc(O)c(O)c1 (racemic)
remaining activity at 1.25 µM ([1]; Well no.=605): 99.5% | remaining activity at 3.75 µM ([2]; Well no.=605): 99.2%

NC(CCCP(=O)(O)O)C(=O)O (racemic)
remaining activity at 1.25 µM ([1]; Well no.=65): 103% | remaining activity at 3.75 µM ([2]; Well no.=65): 97.5%

CC(C)(C)[C@]1(O)CCN2C[C@H]3c4ccccc4CCc4cccc(c43)[C@@H]2C1 (racemic)
remaining activity at 1.25 µM ([1]; Well no.=135): 101% | remaining activity at 3.75 µM ([2]; Well no.=135): 102%

COc1cc(CC(C)N)c(OC)cc1I (racemic)
remaining activity at 1.25 µM ([1]; Well no.=686): 94.3% | remaining activity at 3.75 µM ([2]; Well no.=686): 92.3%

O=C(O)C1CCCNC1 (racemic)
remaining activity at 1.25 µM ([1]; Well no.=195): 102% | remaining activity at 3.75 µM ([2]; Well no.=195): 97.6%

NCC(CC(=O)O)c1ccc(Cl)cc1 (racemic)
remaining activity at 1.25 µM ([1]; Well no.=31): 96.2% | remaining activity at 3.75 µM ([2]; Well no.=31): 97.2%

CCCN(CCC)C1CCc2cccc(O)c2C1 (racemic)
remaining activity at 1.25 µM ([1]; Well no.=470): 99.9% | remaining activity at 3.75 µM ([2]; Well no.=470): 98.3%

COc1ccc(CCN(C)CCCC(C#N)(c2cc(OC)c(OC)c(OC)c2)C(C)C)cc1OC (racemic)
remaining activity at 1.25 µM ([1]; Well no.=1026): 94.4% | remaining activity at 3.75 µM ([2]; Well no.=1026): 98.1%

COC(=O)C1=C(C)NC(C)=C([N+](=O)[O-])C1c1ccccc1C(F)(F)F (racemic)
remaining activity at 1.25 µM ([1]; Well no.=133): 108% | remaining activity at 3.75 µM ([2]; Well no.=133): 105%

N[C@H](C(=O)O)c1cc(O)no1 (racemic)
remaining activity at 1.25 µM ([1]; Well no.=819): 98.4% | remaining activity at 3.75 µM ([2]; Well no.=819): 98.7%

NC(CP(=O)(O)O)C(=O)O (racemic)
remaining activity at 1.25 µM ([1]; Well no.=303): 99.2% | remaining activity at 3.75 µM ([2]; Well no.=303): 100%

CC(C)NCC(O)COc1ccc(CC(N)=O)cc1 (racemic)
remaining activity at 1.25 µM ([1]; Well no.=196): 96.7% | remaining activity at 3.75 µM ([2]; Well no.=196): 99.1%

O=C(O)CCCCC1CCSS1 (racemic)
remaining activity at 1.25 µM ([1]; Well no.=1195): 102% | remaining activity at 3.75 µM ([2]; Well no.=1195): 101%

CC1(NC(=O)CBr)CCC(C(C)(C)NCC(O)COc2cccc3[nH]ccc23)CC1 (racemic)
remaining activity at 1.25 µM ([1]; Well no.=1215): 99.4% | remaining activity at 3.75 µM ([2]; Well no.=1215): 102%
